# Experimental data reported in ChEMBL document CHEMBL2406975, “β-Secretase Inhibitors for the Treatment of Alzheimer's Disease and Down's Syndrome” (ACS Med Chem Lett, 2013).
# Biological target: Beta-secretase 1 (Homo sapiens, UniProt P56817)
# Assay: Inhibition of BACE1 in human SH-SY5Y cells assessed as release of sAPPbeta after 17 hrs
# Format: cell-based
# Beta-secretase 1, sequence (P56817 whole entry): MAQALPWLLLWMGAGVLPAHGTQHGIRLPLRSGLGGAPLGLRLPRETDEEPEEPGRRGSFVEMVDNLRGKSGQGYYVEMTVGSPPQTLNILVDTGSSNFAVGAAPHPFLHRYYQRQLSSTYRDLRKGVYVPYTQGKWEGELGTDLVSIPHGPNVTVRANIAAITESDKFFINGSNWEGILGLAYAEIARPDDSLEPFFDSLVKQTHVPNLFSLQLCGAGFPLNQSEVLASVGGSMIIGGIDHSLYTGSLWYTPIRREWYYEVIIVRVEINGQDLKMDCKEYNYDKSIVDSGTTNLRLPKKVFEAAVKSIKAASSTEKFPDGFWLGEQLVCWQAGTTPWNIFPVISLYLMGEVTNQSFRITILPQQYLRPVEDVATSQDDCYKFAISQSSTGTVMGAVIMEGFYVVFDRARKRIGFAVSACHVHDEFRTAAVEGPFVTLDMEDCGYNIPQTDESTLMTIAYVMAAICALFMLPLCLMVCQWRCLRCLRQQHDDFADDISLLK
row,SMILES,IC50 [nM]
1,CO[C@H]1CC[C@]2(CC1)Cc1ccc(-c3cncnc3)cc1C21C=C(F)C(N)=N1 (some centres undefined),1.1
2,CC#Cc1cncc(-c2ccc3c(c2)C2(C=C(F)C(N)=N2)[C@]2(CC[C@H](OC)CC2)C3)c1 (some centres undefined),0.031
3,CC#Cc1cncc(-c2ccc3c(c2)C2(C=C(F)C(N)=N2)[C@]2(CC[C@@H](OC)CC2)C3)c1 (some centres undefined),1.1
4,CC1(C)Cc2ccc(-c3cncnc3)cc2C12C=C(F)C(N)=N2 (centres undefined),168
